Test results published in ChEMBL document CHEMBL1137802, “Specific antioxidant activity of caffeoyl derivatives and other natural phenolic compounds: LDL protection against oxidation and decrease in the proinflammatory lysophosphatidylcholine production” (J Nat Prod, 2001).

Key:
Type in all cases: functional, cell-free
[1] = Antioxidant activity against Cu2+-induced lipid peroxidation in human plasma LDL assessed as maximal compound concentration at 20 umol/L preincubated for 1 hr before Cu2+ challenge measured after 210 mins relative to compound present at 0 min
[2] = Antioxidant activity against Cu2+-induced lipid peroxidation in human plasma LDL assessed as maximal compound concentration at 5 umol/L preincubated for 1 hr before Cu2+ challenge measured after 30 mins relative to compound present at 0 min
[3] = Antioxidant activity against Cu2+-induced lipid peroxidation in human plasma LDL assessed as vitamin E consumption at 5 umol/L preincubated for 1 hr before Cu2+ challenge measured after 45 mins
[4] = Antioxidant activity against Cu2+-induced lipid peroxidation in human plasma LDL assessed as vitamin E consumption at 10 umol/L preincubated for 1 hr before Cu2+ challenge measured after 90 mins
[5] = Antioxidant activity against Cu2+-induced lipid peroxidation in human plasma LDL assessed as conjugated diene formation at 5 umol/L preincubated for 1 hr before Cu2+ challenge measured after 180 mins
[6] = Antioxidant activity against Cu2+-induced lipid peroxidation in human plasma LDL assessed as maximal compound concentration at 20 umol/L preincubated for 1 hr before Cu2+ challenge measured after 150 mins relative to compound present at 0 min
[7] = Antioxidant activity against Cu2+-induced lipid peroxidation in human plasma LDL assessed as lysophosphatidylcholine formation at 5 umol/L preincubated for 1 hr before Cu2+ challenge measured after 60 mins
[8] = Antioxidant activity against Cu2+-induced lipid peroxidation in human plasma LDL assessed as maximal compound concentration at 20 umol/L preincubated for 1 hr before Cu2+ challenge measured after 15 mins relative to compound present at 0 min
[9] = Antioxidant activity against Cu2+-induced lipid peroxidation in human plasma LDL assessed as vitamin E consumption at 5 umol/L preincubated for 1 hr before Cu2+ challenge measured after 120 mins
[10] = Antioxidant activity against Cu2+-induced lipid peroxidation in human plasma LDL assessed as conjugated diene formation at 10 umol/L preincubated for 1 hr before Cu2+ challenge measured after 270 mins
[11] = Antioxidant activity against Cu2+-induced lipid peroxidation in human plasma LDL assessed as vitamin E consumption at 5 umol/L preincubated for 1 hr before Cu2+ challenge measured after 30 mins
[12] = Antioxidant activity against Cu2+-induced lipid peroxidation in human plasma LDL assessed as conjugated diene formation at 20 umol/L preincubated for 1 hr before Cu2+ challenge measured after 210 mins
[13] = Antioxidant activity against Cu2+-induced lipid peroxidation in human plasma LDL assessed as maximal compound concentration at 20 umol/L preincubated for 1 hr before Cu2+ challenge measured after 90 mins relative to compound present at 0 min
[14] = Antioxidant activity against Cu2+-induced lipid peroxidation in human plasma LDL assessed as vitamin E consumption at 10 umol/L preincubated for 1 hr before Cu2+ challenge measured after 45 mins
[15] = Antioxidant activity against Cu2+-induced lipid peroxidation in human plasma LDL assessed as maximal compound concentration at 5 umol/L preincubated for 1 hr before Cu2+ challenge measured after 120 mins relative to compound present at 0 min
[16] = Antioxidant activity against Cu2+-induced lipid peroxidation in human plasma LDL assessed as lysophosphatidylcholine formation at 10 umol/L preincubated for 1 hr before Cu2+ challenge measured after 60 mins
[17] = Antioxidant activity against Cu2+-induced lipid peroxidation in human plasma LDL assessed as maximal compound concentration at 20 umol/L preincubated for 1 hr before Cu2+ challenge measured after 180 mins relative to compound present at 0 min
[18] = Antioxidant activity against Cu2+-induced lipid peroxidation in human plasma LDL assessed as conjugated diene formation at 10 umol/L preincubated for 1 hr before Cu2+ challenge measured after 60 mins
[19] = Antioxidant activity against Cu2+-induced lipid peroxidation in human plasma LDL assessed as lysophosphatidylcholine formation at 5 umol/L preincubated for 1 hr before Cu2+ challenge measured after 360 mins
[20] = Antioxidant activity against Cu2+-induced lipid peroxidation in human plasma LDL assessed as vitamin E consumption at 5 umol/L preincubated for 1 hr before Cu2+ challenge measured after 60 mins
[21] = Antioxidant activity against Cu2+-induced lipid peroxidation in human plasma LDL assessed as vitamin E consumption at 10 umol/L preincubated for 1 hr before Cu2+ challenge measured after 120 mins
[22] = Antioxidant activity against Cu2+-induced lipid peroxidation in human plasma LDL assessed as maximal compound concentration at 5 umol/L preincubated for 1 hr before Cu2+ challenge measured after 60 mins relative to compound present at 0 min
[23] = Antioxidant activity against Cu2+-induced lipid peroxidation in human plasma LDL assessed as conjugated diene formation at 20 umol/L preincubated for 1 hr before Cu2+ challenge measured after 270 mins
[24] = Antioxidant activity against Cu2+-induced lipid peroxidation in human plasma LDL assessed as vitamin E consumption at 5 umol/L preincubated for 1 hr before Cu2+ challenge measured after 210 mins
[25] = Antioxidant activity against Cu2+-induced lipid peroxidation in human plasma LDL assessed as vitamin E consumption at 10 umol/L preincubated for 1 hr before Cu2+ challenge measured after 60 mins
[26] = Antioxidant activity against Cu2+-induced lipid peroxidation in human plasma LDL assessed as maximal compound concentration at 20 umol/L preincubated for 1 hr before Cu2+ challenge measured after 270 mins relative to compound present at 0 min
[27] = Antioxidant activity against Cu2+-induced lipid peroxidation in human plasma LDL assessed as maximal compound concentration at 5 umol/L preincubated for 1 hr before Cu2+ challenge measured after 45 mins relative to compound present at 0 min
[28] = Antioxidant activity against Cu2+-induced lipid peroxidation in human plasma LDL assessed as maximal compound concentration at 10 umol/L preincubated for 1 hr before Cu2+ challenge measured after 30 mins relative to compound present at 0 min
[29] = Antioxidant activity against Cu2+-induced lipid peroxidation in human plasma LDL assessed as vitamin E consumption at 5 umol/L preincubated for 1 hr before Cu2+ challenge measured after 150 mins
[30] = Antioxidant activity against Cu2+-induced lipid peroxidation in human plasma LDL assessed as lysophosphatidylcholine formation at 20 umol/L preincubated for 1 hr before Cu2+ challenge measured after 210 mins
[31] = Antioxidant activity against Cu2+-induced lipid peroxidation in human plasma LDL assessed as conjugated diene formation at 20 umol/L preincubated for 1 hr before Cu2+ challenge measured after 60 mins
[32] = Antioxidant activity against Cu2+-induced lipid peroxidation in human plasma LDL assessed as vitamin E consumption at 20 umol/L preincubated for 1 hr before Cu2+ challenge measured after 30 mins
[33] = Antioxidant activity against Cu2+-induced lipid peroxidation in human plasma LDL assessed as maximal compound concentration at 10 umol/L preincubated for 1 hr before Cu2+ challenge measured after 150 mins relative to compound present at 0 min

With `CC(C)(Sc1cc(C(C)(C)C)c(O)c(C(C)(C)C)c1)Sc1cc(C(C)(C)C)c(O)c(C(C)(C)C)c1` the Activity [1] was 38.3%, the Activity [2] was 94.8% and the Activity [3] was 7.5%. For the same compound, the Activity [4] was 0%, the Activity [5] was 79.5% and the Activity [6] was 41.2%. For the same compound, the Activity [7] was 2.5%, the Activity [8] was 97% and the Activity [9] was 0%. The Activity [10] was 79.9%, the Activity [11] was 15.5% and the Activity [12] was 2.6%. It also gave an Activity [13] of 44.1%, an Activity [14] of 11% and an Activity [15] of 56.5%. For the same compound, the Activity [16] was 0.7%, the Activity [17] was 34.4% and the Activity [18] was 0.6%. It also gave an Activity [19] of 29.1%, an Activity [20] of 0% and an Activity [21] of 0%. It also gave an Activity [22] of 118%, an Activity [23] of 2.6% and an Activity [24] of 0%. It also gave an Activity [25] of 0%, an Activity [26] of 34.6% and an Activity [27] of 114%. It also gave an Activity [28] of 82%, an Activity [29] of 0% and an Activity [30] of 1.4%. The Activity [31] was 1.3%, the Activity [32] was 19.9% and the Activity [33] was 19.8%.
